Assay results: US20080176936A1, “Classes of Compounds that Interact with Integrins” (priority 2005, published 2008)

Legend:
αVβ3 integrin = biological target: T1, αVβ3 integrin (Homo sapiens, UniProt P05106+P06756); assay: ELISA: inhibition of binding of αVβ3 integrin (source WM-115 cell line) to coated extracellular matrix protein; settings: WM-115 cell line as integrin source
T1 construct: the cell line WM-115 was used as a source of αVβ3 integrin; endogenous in cells; host or cells: WM-115 cell line
Method: (§1) An ELISA assay based on the published method of Bethert et al., 2000, J Biol Chem 275, 33308-23, was employed.
(§2) Briefly, appropriate microtitre plates were coated with either Fibrinogen or Vitronectin (10 μg/well). These extracellular matrix proteins contain the RGD amino acid sequence that is recognized by αllbβ3 integrin. Human platelet membrane preparations were used as a source of αllbβ3 integrin and the cell line WM-115 was used as a source of αVβ3 integrin. Inhibition of the binding of αllbβ3 integrin containing membrane preparations to the extracellular matrix protein was determined by pre-incubating the platelet membrane preparation with test or control compounds. The binding of the αllbβ3 integrin containing membrane was the quantitated by using a rabbit anti-integrinβ3 antibody, a horse radish peroxidase coupled second antibody and a standard colorimetric detection system.

αllbβ3 integrin = biological target: T2, αllbβ3 integrin (Homo sapiens, UniProt P05106+P08514); assay: ELISA: inhibition of binding of αllbβ3 integrin membrane preparation to coated extracellular matrix protein; settings: human platelet membrane preparation
T2 construct: Human platelet membrane preparations were used as a source of αllbβ3 integrin; from tissue; host or cells: human platelets (membrane preparation)
Method: as §1, §2

T2 sequence (P08514 32-887 limits assumed): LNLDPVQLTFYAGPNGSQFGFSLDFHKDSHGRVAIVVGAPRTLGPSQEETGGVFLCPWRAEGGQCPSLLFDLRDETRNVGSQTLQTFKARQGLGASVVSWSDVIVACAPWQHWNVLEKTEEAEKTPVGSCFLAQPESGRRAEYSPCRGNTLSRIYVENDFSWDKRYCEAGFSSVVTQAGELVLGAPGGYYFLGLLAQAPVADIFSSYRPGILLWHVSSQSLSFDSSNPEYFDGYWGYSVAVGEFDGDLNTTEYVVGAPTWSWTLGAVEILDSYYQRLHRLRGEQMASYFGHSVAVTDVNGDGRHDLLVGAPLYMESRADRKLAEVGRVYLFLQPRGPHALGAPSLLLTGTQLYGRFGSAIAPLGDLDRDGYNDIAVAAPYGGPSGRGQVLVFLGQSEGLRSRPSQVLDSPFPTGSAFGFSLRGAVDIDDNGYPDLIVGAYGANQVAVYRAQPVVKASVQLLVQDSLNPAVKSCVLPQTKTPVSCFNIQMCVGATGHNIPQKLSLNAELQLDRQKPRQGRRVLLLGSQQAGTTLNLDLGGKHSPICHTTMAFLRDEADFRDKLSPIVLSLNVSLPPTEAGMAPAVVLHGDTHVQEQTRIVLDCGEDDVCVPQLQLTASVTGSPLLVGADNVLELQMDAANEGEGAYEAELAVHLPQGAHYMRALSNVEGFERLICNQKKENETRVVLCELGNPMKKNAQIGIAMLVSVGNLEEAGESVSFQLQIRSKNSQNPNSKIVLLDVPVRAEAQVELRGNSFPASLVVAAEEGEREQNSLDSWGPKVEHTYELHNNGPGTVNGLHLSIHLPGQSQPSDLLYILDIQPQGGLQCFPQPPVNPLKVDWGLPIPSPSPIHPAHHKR
T2 sequence (P08514 891-1039 partner limits assumed): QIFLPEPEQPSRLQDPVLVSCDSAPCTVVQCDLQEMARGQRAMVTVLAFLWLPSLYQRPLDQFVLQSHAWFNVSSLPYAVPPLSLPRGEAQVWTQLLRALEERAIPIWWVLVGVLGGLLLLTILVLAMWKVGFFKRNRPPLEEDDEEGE
T2 sequence (P05106 27-788): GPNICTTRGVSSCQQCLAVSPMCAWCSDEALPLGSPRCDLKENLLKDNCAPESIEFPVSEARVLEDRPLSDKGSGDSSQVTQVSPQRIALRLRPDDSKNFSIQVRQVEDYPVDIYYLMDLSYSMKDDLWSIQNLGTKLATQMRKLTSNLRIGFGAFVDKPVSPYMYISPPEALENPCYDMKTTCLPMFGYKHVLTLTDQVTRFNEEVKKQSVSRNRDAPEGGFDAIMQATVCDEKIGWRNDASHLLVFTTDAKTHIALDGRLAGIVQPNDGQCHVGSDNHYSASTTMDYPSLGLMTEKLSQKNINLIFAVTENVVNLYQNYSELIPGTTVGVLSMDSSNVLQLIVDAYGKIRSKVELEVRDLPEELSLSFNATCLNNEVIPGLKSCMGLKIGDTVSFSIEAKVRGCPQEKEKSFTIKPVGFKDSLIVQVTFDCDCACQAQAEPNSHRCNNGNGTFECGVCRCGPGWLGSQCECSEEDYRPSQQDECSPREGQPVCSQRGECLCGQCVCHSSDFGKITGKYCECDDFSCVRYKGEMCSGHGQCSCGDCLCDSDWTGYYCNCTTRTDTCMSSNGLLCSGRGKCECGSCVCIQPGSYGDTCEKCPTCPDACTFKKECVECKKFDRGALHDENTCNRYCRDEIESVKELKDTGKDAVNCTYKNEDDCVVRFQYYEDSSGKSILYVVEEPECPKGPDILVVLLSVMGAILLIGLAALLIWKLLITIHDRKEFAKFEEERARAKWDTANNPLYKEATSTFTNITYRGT
T1 sequence (P06756 31-889 limits assumed): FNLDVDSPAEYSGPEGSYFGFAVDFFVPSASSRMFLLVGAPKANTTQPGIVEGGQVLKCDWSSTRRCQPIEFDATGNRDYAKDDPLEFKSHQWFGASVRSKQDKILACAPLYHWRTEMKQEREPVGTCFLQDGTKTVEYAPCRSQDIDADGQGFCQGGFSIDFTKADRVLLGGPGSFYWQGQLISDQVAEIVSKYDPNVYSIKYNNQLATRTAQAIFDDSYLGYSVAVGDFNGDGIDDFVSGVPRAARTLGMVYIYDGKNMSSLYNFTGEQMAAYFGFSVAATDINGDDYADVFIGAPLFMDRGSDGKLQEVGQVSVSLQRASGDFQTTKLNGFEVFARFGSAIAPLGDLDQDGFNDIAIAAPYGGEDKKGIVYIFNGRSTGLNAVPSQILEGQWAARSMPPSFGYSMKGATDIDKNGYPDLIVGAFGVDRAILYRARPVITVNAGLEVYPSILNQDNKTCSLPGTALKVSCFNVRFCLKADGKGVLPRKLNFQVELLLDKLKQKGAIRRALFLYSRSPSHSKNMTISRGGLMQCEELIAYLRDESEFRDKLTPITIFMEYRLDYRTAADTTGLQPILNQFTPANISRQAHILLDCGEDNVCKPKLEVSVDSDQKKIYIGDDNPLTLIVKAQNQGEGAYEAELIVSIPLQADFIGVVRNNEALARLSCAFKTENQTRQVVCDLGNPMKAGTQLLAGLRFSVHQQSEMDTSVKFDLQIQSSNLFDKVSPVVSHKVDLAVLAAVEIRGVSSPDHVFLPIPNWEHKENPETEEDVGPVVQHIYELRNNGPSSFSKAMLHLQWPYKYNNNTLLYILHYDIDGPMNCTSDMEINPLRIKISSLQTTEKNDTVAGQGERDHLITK
T1 sequence (P06756 891-1048 partner limits assumed): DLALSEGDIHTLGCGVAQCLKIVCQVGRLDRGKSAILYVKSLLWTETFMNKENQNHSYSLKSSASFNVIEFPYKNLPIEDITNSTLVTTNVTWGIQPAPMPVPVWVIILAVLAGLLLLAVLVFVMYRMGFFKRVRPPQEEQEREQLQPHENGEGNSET
T1 sequence (P05106 27-788): as the sequence (P05106 27-788) above

Row | SMILES | INHIBITION 250 uM RECEPTOR aVb3 SUBSTRATE FIBRINOGEN (αVβ3 integrin) | INHIBITION @ 250 uM RECEPTOR allBb3 SUBSTRATE FIBRINOGEN (αllbβ3 integrin) | INHIBITION 250 uM RECEPTOR allBb3 SUBSTRATE VITRONECTIN (αllbβ3 integrin)
1 | CCOC1O[C@H](COCc2ccccc2)[C@@H](O)[C@H](OCC(=O)O)[C@H]1NC(=O)CCNC(=N)N (single isomer, unassigned) [Compound 48] | +++ (81% to 100% inhibition at 250 micromolar) | ++ (61% to 80% inhibition at 250 micromolar) | +++ (81% to 100% inhibition at 250 micromolar)
2 | CCOC1O[C@H](COCc2ccccc2)[C@@H](O)[C@H](OCC(=O)O)[C@H]1NC(=O)CCNC(=N)N (single isomer, unassigned) [Compound 49] | +++ (81% to 100% inhibition at 250 micromolar) | ++ (61% to 80% inhibition at 250 micromolar) | +++ (81% to 100% inhibition at 250 micromolar)
3 | CCOC1O[C@H](COCc2ccc(Br)cc2)[C@@H](O)[C@H](OCC(=O)O)[C@H]1NC(=O)CCNC(=N)N (single isomer, unassigned) [Compound 50] | +++ (81% to 100% inhibition at 250 micromolar) | + (36% to 60% inhibition at 250 micromolar) | +++ (81% to 100% inhibition at 250 micromolar)
4 | CCOC1O[C@H](COCc2ccc(Br)cc2)[C@@H](O)[C@H](OCC(=O)O)[C@H]1NC(=O)CCNC(=N)N (single isomer, unassigned) [Compound 51] | ++ (61% to 80% inhibition at 250 micromolar) | ++ (61% to 80% inhibition at 250 micromolar) | +++ (81% to 100% inhibition at 250 micromolar)
5 | CCOC1O[C@H](COCc2ccc(Br)cc2)[C@@H](O)[C@H](OCC(=O)O)[C@H]1NC(=O)CCNC(=N)N (single isomer, unassigned) [Compound 52] | +++ (81% to 100% inhibition at 250 micromolar) | + (36% to 60% inhibition at 250 micromolar) | ++ (61% to 80% inhibition at 250 micromolar)
6 | CCOC1O[C@H](COCc2cccc(N)c2)[C@@H](O)[C@H](OCC(=O)O)[C@H]1NC(=O)c1ccccc1 (single isomer, unassigned) [Compound 54] | + (36% to 60% inhibition at 250 micromolar) | − (0% to 35% inhibition at 250 micromolar) | ++ (61% to 80% inhibition at 250 micromolar)
7 | CCOC1O[C@H](COCc2cccc(N)c2)[C@@H](O)[C@H](OCC(=O)O)[C@H]1NC(=O)c1ccccc1 (single isomer, unassigned) [Compound 55] | +++ (81% to 100% inhibition at 250 micromolar) | + (36% to 60% inhibition at 250 micromolar) | +++ (81% to 100% inhibition at 250 micromolar)
8 | CCOC1O[C@H](COCc2ccccc2)[C@@H](O)[C@H](OCc2ccc(C(=O)O)cc2)[C@H]1NC(=O)CCNC(=N)N (single isomer, unassigned) [Compound 57] | +++ (81% to 100% inhibition at 250 micromolar) | − (0% to 35% inhibition at 250 micromolar) | +++ (81% to 100% inhibition at 250 micromolar)
9 | CCOC1O[C@H](COCc2ccccc2)[C@@H](O)[C@H](OCc2ccc(C(=O)O)cc2)[C@H]1NC(=O)CCNC(=N)N (single isomer, unassigned) [Compound 58] | +++ (81% to 100% inhibition at 250 micromolar) | + (36% to 60% inhibition at 250 micromolar) | +++ (81% to 100% inhibition at 250 micromolar)
10 | N=C(N)NCCC(=O)N[C@H]1C(O)O[C@H](COCc2ccccc2)[C@@H](O)[C@@H]1OCc1ccc(C(=O)O)cc1 (single isomer, unassigned) [Compound 59] | +++ (81% to 100% inhibition at 250 micromolar) | + (36% to 60% inhibition at 250 micromolar) | +++ (81% to 100% inhibition at 250 micromolar)
11 | CCOC1O[C@H](COCc2ccc(Br)cc2)[C@@H](O)[C@H](OCc2ccc(C(=O)O)cc2)[C@H]1NC(=O)CCNC(=N)N (single isomer, unassigned) [Compound 60] | +++ (81% to 100% inhibition at 250 micromolar) | + (36% to 60% inhibition at 250 micromolar) | +++ (81% to 100% inhibition at 250 micromolar)
12 | CCOC1O[C@H](COCc2ccc(Br)cc2)[C@@H](O)[C@H](OCc2ccc(C(=O)O)cc2)[C@H]1NC(=O)CCNC(=N)N (single isomer, unassigned) [Compound 61] | +++ (81% to 100% inhibition at 250 micromolar) | − (0% to 35% inhibition at 250 micromolar) | +++ (81% to 100% inhibition at 250 micromolar)
13 | N=C(N)NCCC(=O)N[C@H]1C(O)O[C@H](COCc2ccc(Br)cc2)[C@@H](O)[C@@H]1OCc1ccc(C(=O)O)cc1 (single isomer, unassigned) [Compound 63] | − (0% to 35% inhibition at 250 micromolar) | ++ (61% to 80% inhibition at 250 micromolar) | +++ (81% to 100% inhibition at 250 micromolar)
14 | CCOC1OC(COCc2cccc(N)c2)C(O)C(OCc2ccc(C(=O)O)cc2)C1NC(=O)c1ccc(Cl)cc1 (single isomer, unassigned) [Compound 64] | + (36% to 60% inhibition at 250 micromolar) | − (0% to 35% inhibition at 250 micromolar) | ++ (61% to 80% inhibition at 250 micromolar)
15 | Nc1cccc(COCC2OC(O)C(NC(=O)c3ccc(Cl)cc3)C(OCc3ccc(C(=O)O)cc3)C2O)c1 (single isomer, unassigned) [Compound 66] | + (36% to 60% inhibition at 250 micromolar) | + (36% to 60% inhibition at 250 micromolar) | +++ (81% to 100% inhibition at 250 micromolar)
16 | Nc1cccc(COCC2OC(O)C(NC(=O)c3ccc(Cl)cc3)C(OCc3ccc(C(=O)O)cc3)C2O)c1 (single isomer, unassigned) [Compound 67] | − (0% to 35% inhibition at 250 micromolar) | + (36% to 60% inhibition at 250 micromolar) | +++ (81% to 100% inhibition at 250 micromolar)
17 | CCOC1OC(COCc2ccccc2)C(O)C(OCc2cccc(N)c2)C1NC(=O)c1ccc(C(=O)O)cc1 (single isomer, unassigned) [Compound 68] | ++ (61% to 80% inhibition at 250 micromolar) | − (0% to 35% inhibition at 250 micromolar) | ++ (61% to 80% inhibition at 250 micromolar)
